Here are results for one compound from ChEMBL document CHEMBL3045757, “Common binding requirements of PPAR-// pan agonists: quantitative structureactivity relationship analysis of indanylacetic acid derivatives carrying 4-thiazolyl-phenoxy tail group” (Med Chem Res, 2012).

The structures appear in SMILES notation.

For this test, the target named is T1, Peroxisome proliferator-activated receptor gamma (Homo sapiens, UniProt P37231).
T1 sequence (P37231 whole entry): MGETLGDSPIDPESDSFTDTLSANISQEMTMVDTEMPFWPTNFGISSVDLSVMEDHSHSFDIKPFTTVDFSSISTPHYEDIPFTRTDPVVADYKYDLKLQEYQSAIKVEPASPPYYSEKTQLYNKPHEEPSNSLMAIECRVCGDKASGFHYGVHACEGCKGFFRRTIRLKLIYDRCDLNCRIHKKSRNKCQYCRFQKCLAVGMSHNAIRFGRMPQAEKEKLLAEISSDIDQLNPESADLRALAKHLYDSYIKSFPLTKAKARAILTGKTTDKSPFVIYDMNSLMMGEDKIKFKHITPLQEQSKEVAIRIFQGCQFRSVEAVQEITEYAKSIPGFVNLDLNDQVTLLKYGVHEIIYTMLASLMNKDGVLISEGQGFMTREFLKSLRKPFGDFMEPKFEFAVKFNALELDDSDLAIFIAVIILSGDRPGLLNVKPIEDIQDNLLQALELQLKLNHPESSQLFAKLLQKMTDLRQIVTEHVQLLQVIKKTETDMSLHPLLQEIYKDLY
The test can be described thus: Agonist activity at Homo sapiens (human) PPARgamma expressed in mouse 3T3-L1 cells incubated for 2 days followed by compound wash out measured after 4 days by insulin receptor binding assay. In kind it is cell-based.

Compound `CCOc1nc(-c2ccc(OCCCOc3ccc4c(c3)CC[C@H]4CC(=O)O)c(OC)c2)sc1CC` had an EC50 of 178 nM.
